The target in series [1] is T1, Multidrug efflux pump LfrA (Mycobacterium smegmatis (strain ATCC 700084 / mc(2)155)) (UniProt A0R5K5).
T1 sequence (whole entry): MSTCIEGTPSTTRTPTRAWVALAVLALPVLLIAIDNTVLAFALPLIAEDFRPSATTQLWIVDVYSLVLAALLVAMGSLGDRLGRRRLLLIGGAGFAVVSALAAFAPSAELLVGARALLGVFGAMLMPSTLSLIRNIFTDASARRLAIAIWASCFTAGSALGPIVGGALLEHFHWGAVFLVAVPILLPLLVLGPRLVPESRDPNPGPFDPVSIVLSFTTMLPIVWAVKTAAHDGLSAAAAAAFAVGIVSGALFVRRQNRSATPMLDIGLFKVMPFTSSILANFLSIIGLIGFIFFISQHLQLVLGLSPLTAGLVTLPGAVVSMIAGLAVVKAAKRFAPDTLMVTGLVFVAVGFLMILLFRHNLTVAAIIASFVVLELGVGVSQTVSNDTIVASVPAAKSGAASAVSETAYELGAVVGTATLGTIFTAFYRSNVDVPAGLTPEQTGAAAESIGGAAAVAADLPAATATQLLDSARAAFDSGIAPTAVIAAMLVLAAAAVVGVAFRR
The experiment in a line: Inhibition of LfrA in Mycobacterium smegmatis MC2 155 ATCC 700084 assessed as increase in EtBr accumulation at 12.5 ug/ml measured every 5 mins for 35 mins by fluorometric analysis. To be noted: Mycolicibacterium smegmatis MC2 155.

Series [2] concerns the target T1, Multidrug efflux pump LfrA (Mycobacterium smegmatis (strain ATCC 700084 / mc(2)155)). The experiment in a line: Inhibition of LfrA in Mycobacterium smegmatis MC2 155 ATCC 700084 assessed as decrease in norfloxacin MIC at 0.0004 ug/ml after 72 hrs by MTT assay relative to control. As to conditions: Mycolicibacterium smegmatis MC2 155.
For series [3] the target is unchanged. The experiment in a line: Inhibition of LfrA in Mycobacterium smegmatis MC2 155 ATCC 700084 assessed as decrease in EtBr MIC at 16 ug/ml after 72 hrs by MTT assay relative to control. To be noted: Mycolicibacterium smegmatis MC2 155.
For series [4], the system named is Mycolicibacterium smegmatis. In words: Growth inhibition of Mycobacterium smegmatis MC2 155 ATCC 700084 after 72 hrs by MTT assay. In kind it is organism-based.
Series [5] addresses T1, Multidrug efflux pump LfrA (Mycobacterium smegmatis (strain ATCC 700084 / mc(2)155)). In words: Inhibition of LfrA in Mycobacterium smegmatis MC2 155 ATCC 700084 assessed as increase in norfloxacin accumulation at 12.5 ug/ml measured every 5 mins for 35 mins by fluorometric analysis. To be noted: Mycolicibacterium smegmatis MC2 155.
Series [6] shares this target. The experiment in a line: Inhibition of LfrA in Mycobacterium smegmatis MC2 155 ATCC 700084 assessed as increase in EtBr accumulation at 25 ug/ml measured every 5 mins for 35 mins by fluorometric analysis. To be noted: Mycolicibacterium smegmatis MC2 155.
Series [7] has the same target. In words: Inhibition of LfrA in Mycobacterium smegmatis MC2 155 ATCC 700084 assessed as decrease in norfloxacin MIC at 50 ug/ml after 72 hrs by MTT assay relative to control. As to conditions: Mycolicibacterium smegmatis MC2 155.
Series [8] shares this target. In words: Inhibition of LfrA in Mycobacterium smegmatis MC2 155 ATCC 700084 assessed as potentiation of EtBr-induced bactericidal activity at 100 ug/ml after 48 hrs. As to conditions: Mycolicibacterium smegmatis MC2 155.
For series [9] the target is unchanged. In words: Inhibition of LfrA in Mycobacterium smegmatis MC2 155 ATCC 700084 assessed as increase in EtBr accumulation at 50 ug/ml measured every 5 mins for 35 mins by fluorometric analysis. As to conditions: Mycolicibacterium smegmatis MC2 155.
The target is the same in series [10]. In words: Inhibition of LfrA in Mycobacterium smegmatis MC2 155 ATCC 700084 assessed as decrease in EtBr MIC at 100 ug/ml after 72 hrs by MTT assay relative to control. As to conditions: Mycolicibacterium smegmatis MC2 155.
The next series relates to CC-1. In words: Cytotoxicity against rat CC1 cells assessed as decrease in cell survival at 200 ug/ml after 24 hrs by Alamar blue reduction assay relative to control. To be noted: cc-1, 24 h. In kind it is cell-based.
The nature of series [11]: Cytotoxicity against rat CC1 cells assessed as cell survival at 50 ug/ml after 24 hrs by Alamar blue reduction assay relative to control. In kind it is cell-based, CC-1. To be noted: read-out: Survival.
The nature of series [12]: Cytotoxicity against rat CC1 cells assessed as cell survival at 100 ug/ml after 24 hrs by Alamar blue reduction assay relative to control. In kind it is cell-based, CC-1. To be noted: read-out: Survival.
In series [13] the target is T1, Multidrug efflux pump LfrA (Mycobacterium smegmatis (strain ATCC 700084 / mc(2)155)). The experiment in a line: Inhibition of LfrA in Mycobacterium smegmatis MC2 155 ATCC 700084 assessed as potentiation of EtBr-induced bactericidal activity at 100 ug/ml after 24 hrs. To be noted: Mycolicibacterium smegmatis MC2 155.
Series [14] has the same target. The experiment in a line: Inhibition of LfrA in Mycobacterium smegmatis MC2 155 ATCC 700084 assessed as increase in norfloxacin accumulation at 25 ug/ml measured every 5 mins for 35 mins by fluorometric analysis. To be noted: Mycolicibacterium smegmatis MC2 155.
Series [15] shares this target. In words: Inhibition of LfrA in Mycobacterium smegmatis MC2 155 ATCC 700084 assessed as potentiation of norfloxacin-induced bactericidal activity at 25 ug/ml after 24 to 48 hrs. As to conditions: Mycolicibacterium smegmatis MC2 155.
The target is the same in series [16]. The experiment in a line: Inhibition of LfrA in Mycobacterium smegmatis MC2 155 ATCC 700084 assessed as decrease in norfloxacin MIC at 25 ug/ml after 72 hrs by MTT assay relative to control. To be noted: Mycolicibacterium smegmatis MC2 155.
For series [17] the target is unchanged. In words: Inhibition of LfrA in Mycobacterium smegmatis MC2 155 ATCC 700084 assessed as decrease in norfloxacin MIC at 12.5 ug/ml after 72 hrs by MTT assay relative to control. To be noted: Mycolicibacterium smegmatis MC2 155.
Series [18] has the same target. In words: Inhibition of LfrA in Mycobacterium smegmatis MC2 155 ATCC 700084 assessed as decrease in EtBr MIC at 0.78 ug/ml after 72 hrs by MTT assay relative to control. To be noted: Mycolicibacterium smegmatis MC2 155.

In brackets after ≈: the same amount, converted by molar mass. Activity calls are given as the source filed them. No cut-off for these calls is given here. Where only a bound is given, the exact number is not on record here.

With `N#CC(C#N)=NNc1cccc(Cl)c1` [CARBONYL CYANIDE M-CHLOROPHENYLHYDRAZONE], the inhibition result in series [1] was “Active”. In series [2], the fold change (FC) amounted to 32 and the fractional inhibitory concentration index (FICI) worked out at 0.03. In series [3], the fold change (FC) was 2 and the fractional inhibitory concentration index (FICI) came out at 0.5. The MIC in [4] turned out to be 25 µg/mL (≈ 122 µM). In [5], the Activity was found to be 1000 FU.
On to `O=c1c2cccc(Cl)c2nc2c(Cl)cccn12`, for which the inhibition result in series [6] was “Active”. In addition, the fold change (FC) amounted to 4 in series [7] and 16 in [10]. For the same molecule, the fractional inhibitory concentration index (FICI) was determined as 0.55 in [7] and 0.56 in series [10]. For the same molecule, the Activity (deltalog10CFU/ml) in series [8] was 7. Moreover, the Activity in series [9] was greater than 355 FU; in the series with CC-1, greater than 50%. Further, the MIC in series [4] amounted to 200 µg/mL (≈ 754 µM). Moreover, the viability at 24 h, 50 ug/ml in series [11] was determined as 95%. Further, in series [12], the viability at 24 h, 100 ug/ml turned out to be 92%.
On to `O=c1c2cccc(Cl)c2nc2ccc(F)cn12`, for which the inhibition result in series [6] and in [13] was “Active” each time. The fold change (FC) was found to be 4 in [7] and 8 in series [10]. The fractional inhibitory concentration index (FICI) in series [7] was found to be 0.55; in [10], 0.62. The results for the Activity (in [9]; in the series with CC-1) were greater than 500 FU and greater than 50%, respectively. Also, in series [4], the MIC worked out at 200 µg/mL (≈ 804 µM). In series [11], the viability at 24 h, 50 ug/ml was 84%. In series [12], the viability at 24 h, 100 ug/ml amounted to 86%.
Regarding `O=c1c2cccc(Cl)c2nc2ccccn12`, the figures for the Activity (in [14]; with CC-1) were 3000 FU and greater than 50%, respectively. Further, the Activity (deltalog10CFU/ml) in series [15] is greater than 3. In addition, the fold change (FC) in [16] is 8. Besides, in [16], the fractional inhibitory concentration index (FICI) is 0.25. The molecule also returned an MIC in series [4] of 200 µg/mL (≈ 867 µM). For the same molecule, the viability at 24 h, 50 ug/ml in series [11] turned out to be 100%. Moreover, the viability at 24 h, 100 ug/ml in [12] turned out to be 99%.
The molecule `O=c1c2ccc(F)cc2nc2ccccn12` gave an MIC in series [4] of 200 µg/mL (≈ 934 µM). Also, in [17], the fold change (FC) was 2 and the fractional inhibitory concentration index (FICI) came to 0.56.
`O=c1c2ccccc2nc2c(F)cc(F)cn12`: the inhibition entry in series [6] and in [13] was “Active” each time. Besides, the figures for the Activity (in series [9]; with CC-1) were greater than 255 FU and greater than 50%, respectively. For the same molecule, the results for the fold change (FC) in [10] and in series [17] were 16 and 4, respectively. The results for the fractional inhibitory concentration index (FICI) in [10] and in [17] were 0.5 and 0.3, respectively. In series [4], this molecule registered an MIC of 200 µg/mL (≈ 861 µM). The viability at 24 h, 50 ug/ml in [11] amounted to 80%. Further, in series [12], the viability at 24 h, 100 ug/ml was 52%.
Take `Cc1cccn2c(=O)c3cc(Br)ccc3nc12`: in series [16], the fold change (FC) came to 4 and the fractional inhibitory concentration index (FICI) was found to be 0.37. For the same molecule, the MIC in [4] was 200 µg/mL (≈ 692 µM). In addition, in series [18], the fold change (FC) was found to be 2 and the fractional inhibitory concentration index (FICI) was determined as 0.3.
For `Cc1ccn2c(=O)c3cc(Br)ccc3nc2c1` the same measures were 4, 0.37, 200 µg/mL (≈ 692 µM), 2 and 0.3.

The record behind these values is ChEMBL document CHEMBL4152357, “Efflux pump inhibition by 11H-pyrido[2,1-b]quinazolin-11-one analogues in mycobacteria” (Bioorg Med Chem, 2018).
